Assay results as given in PMC5224920, “Assessing the mechanism and therapeutic potential of modulators of the human Mediator complex-associated protein kinases” (eLife, 2016).

Tested on: 12 single or co-culture in vitro tissue models of primary cells
Test: Culture/co-culture cell model panel, extracellular biomarkers (DiscoveRx); as to CCL2/MCP-1: reference of the scale not given here; as to CD38: reference of the scale not given here; as to CD40: reference of the scale not given here; as to CD69: reference of the scale not given here; as to CXCL8/IL-8: reference of the scale not given here; as to CXCL9/MIG: reference of the scale not given here; as to PBMC Cytotoxicity: reference of the scale not given here; as to Proliferation: reference of the scale not given here; as to SRB: reference of the scale not given here; as to sPGE2: reference of the scale not given here; as to sTNF-alpha: reference of the scale not given here
Type: cell-based, human
Conditions: for CCL2/MCP-1 / CD38 / CD40 / CD62E/E-Selectin / CD69 / CXCL8/IL-8 / CXCL9/MIG / PBMC Cytotoxicity / Proliferation / SRB: SAg

Cc1n[nH]c2ncc(C(=O)N3CCC[C@H]3c3ccc(Cl)cc3)cc12 [CMPD4]
sPGE2 (LPS Huvec+PBMC, 4.57E0 nM): 0.124 | sTNF-alpha (LPS Huvec+PBMC, 4.57E0 nM): -0.057 | CCL2/MCP-1 (1.00E4 nM): -0.077 | CD38 (1.00E4 nM): -0.031 | CD40 (1.00E4 nM): -0.104 | CD62E/E-Selectin (1.00E4 nM): 0.099 | CD69 (1.00E4 nM): 0.140 | CXCL8/IL-8 (1.00E4 nM): -0.277 | CXCL9/MIG (1.00E4 nM): -0.047 | PBMC Cytotoxicity (1.00E4 nM): 0.013 | Proliferation (1.00E4 nM): -0.003 | SRB (1.00E4 nM): -0.133 | CCL2/MCP-1 (1.11E3 nM): -0.125 | CD38 (1.11E3 nM): -0.063 | CD40 (1.11E3 nM): -0.103 | CD62E/E-Selectin (1.11E3 nM): 0.135 | CD69 (1.11E3 nM): 0.166 | CXCL8/IL-8 (1.11E3 nM): -0.272 | CXCL9/MIG (1.11E3 nM): -0.097 | PBMC Cytotoxicity (1.11E3 nM): 0.007 | Proliferation (1.11E3 nM): -0.000932 | SRB (1.11E3 nM): -0.168 | CCL2/MCP-1 (1.23E2 nM): -0.092 | CD38 (1.23E2 nM): -0.087 | CD40 (1.23E2 nM): -0.136 | CD62E/E-Selectin (1.23E2 nM): 0.130 | CD69 (1.23E2 nM): 0.140 | CXCL8/IL-8 (1.23E2 nM): -0.108 | CXCL9/MIG (1.23E2 nM): -0.076 | PBMC Cytotoxicity (1.23E2 nM): -0.032 | Proliferation (1.23E2 nM): 0.030 | SRB (1.23E2 nM): -0.149 | CCL2/MCP-1 (1.37E1 nM): -0.019 | CD38 (1.37E1 nM): -0.064 | CD40 (1.37E1 nM): -0.117 | CD62E/E-Selectin (1.37E1 nM): 0.101 | CD69 (1.37E1 nM): 0.100 | CXCL8/IL-8 (1.37E1 nM): -0.060 | CXCL9/MIG (1.37E1 nM): -0.029 | PBMC Cytotoxicity (1.37E1 nM): 0.005 | Proliferation (1.37E1 nM): -0.021 | SRB (1.37E1 nM): -0.058 | CCL2/MCP-1 (3.33E3 nM): -0.104 | CD38 (3.33E3 nM): -0.056 | CD40 (3.33E3 nM): -0.138 | CD62E/E-Selectin (3.33E3 nM): 0.125 | CD69 (3.33E3 nM): 0.148 | CXCL8/IL-8 (3.33E3 nM): -0.259 | CXCL9/MIG (3.33E3 nM): -0.085 | PBMC Cytotoxicity (3.33E3 nM): -0.00278 | Proliferation (3.33E3 nM): -0.016 | SRB (3.33E3 nM): -0.179 | CCL2/MCP-1 (3.70E2 nM): -0.123 | CD38 (3.70E2 nM): -0.080 | CD40 (3.70E2 nM): -0.137 | CD62E/E-Selectin (3.70E2 nM): 0.119 | CD69 (3.70E2 nM): 0.128 | CXCL8/IL-8 (3.70E2 nM): -0.284 | CXCL9/MIG (3.70E2 nM): -0.085 | PBMC Cytotoxicity (3.70E2 nM): -0.040 | Proliferation (3.70E2 nM): -0.011 | SRB (3.70E2 nM): -0.146 | CCL2/MCP-1 (4.12E1 nM): -0.056 | CD38 (4.12E1 nM): -0.062 | CD40 (4.12E1 nM): -0.124 | CD62E/E-Selectin (4.12E1 nM): 0.124 | CD69 (4.12E1 nM): 0.126 | CXCL8/IL-8 (4.12E1 nM): -0.119 | CXCL9/MIG (4.12E1 nM): -0.046 | PBMC Cytotoxicity (4.12E1 nM): -0.001 | Proliferation (4.12E1 nM): 0.000938 | SRB (4.12E1 nM): -0.102 | CCL2/MCP-1 (4.57E0 nM): 0.040 | CD38 (4.57E0 nM): -0.052 | CD40 (4.57E0 nM): -0.084 | CD62E/E-Selectin (4.57E0 nM): 0.070 | CD69 (4.57E0 nM): 0.062 | CXCL8/IL-8 (4.57E0 nM): 0.007 | CXCL9/MIG (4.57E0 nM): -0.031 | PBMC Cytotoxicity (4.57E0 nM): 0.015 | Proliferation (4.57E0 nM): 0.009 | SRB (4.57E0 nM): 0.029
